Results as given in publication PMC7248381, “Structure and Characterization of a Covalent Inhibitor of Src Kinase” (Frontiers in Molecular Biosciences, 2020).

What was measured:
Src kinase = Src kinase (Homo sapiens, UniProt P12931); experiment: Src enzymatic activity, mobility shift assay (MSA)
Procedure: Here, we evaluated the relative potency of inhibitors on Src enzymatic activity using a mobility shift assay (MSA), which measures phosphorylation of a peptide substrate of Src. […] The kinase reaction buffer consisted of 100 mM Hepes, pH 7.3, 0.015% Brij-35, 0.004% Tween-20, and 10 mM MgCl2. […] The percent conversion was determined by EZReader 3.0 software and analyzed using GraphPad software version 7 (La Jolla, California, USA) for determination of IC50 values.

[1] = parameters: method as in earlier work; conditions: comparison values, ref Gierse et al., 1999, Papp-Wallace et al., 2014, Schwartz et al.; cited from earlier work

Sequence of Src kinase (P12931 254-536): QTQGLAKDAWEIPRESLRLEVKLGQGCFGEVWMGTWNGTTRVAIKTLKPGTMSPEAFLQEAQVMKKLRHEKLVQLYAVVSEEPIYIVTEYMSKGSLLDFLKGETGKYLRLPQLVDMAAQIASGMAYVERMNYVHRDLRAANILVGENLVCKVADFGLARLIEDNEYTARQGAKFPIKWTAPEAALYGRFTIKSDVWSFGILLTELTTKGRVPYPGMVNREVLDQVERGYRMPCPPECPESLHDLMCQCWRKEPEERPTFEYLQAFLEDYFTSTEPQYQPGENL

IC50 (Src kinase) [nM] | SMILES | inactivation rate constant (kinact) [1] [s⁻¹]
26.6 | C=CC(=O)Nc1ccccc1Nc1nc(Nc2ccc(N3CCN(C)CC3)cc2)ncc1Cl [SM1-71] | –
– | CN(C)C/C=C/C(=O)Nc1cc2c(Nc3ccc(F)c(Cl)c3)ncnc2cc1O[C@H]1CCOC1 [afatinib] | 0.001
– | CCOc1cc2ncc(C#N)c(Nc3ccc(OCc4ccccn4)c(Cl)c3)c2cc1NC(=O)/C=C/CN(C)C [neratinib] | 0.002
